We go through 8 molecules from patent US4965280A, “Antifungal carbinols” (E. I. Du Pont de Nemours and Company, priority 1989, dated 1990).

In one assay the test system is Sclerotium rolfsii. Nature of the assay: Example M southern blight. Type of assay: in vivo. Particulars: Agroathelia rolfsii, 336 h; 5 kg/ha; read-out: disease control rating, Ex. M. How it is done:
[…] Seeds and soil were then inoculated with a mixture of sand, cereal and mycelium of the fungus Sclerotium rolfsii, causal agent of sourthern blight, and incubated in a growth chamber at 30° C. for 14 days. Disease ratings were then made.

The next assay concerns Pythium aphanadermatum. In words: Example J cucumber damping off. Format: in vivo. The following applies: Pythium, 336 h; 5 kg/ha; read-out: disease control rating, Ex. J. The essentials: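 Seeds and soil were inoculated with a mix of sand, cereal and Pythium aphanadermatum mycelium, the fungus responsible for cucumber damping off. They were kept in a growth chamber at 30° C. for 14 days, and disease was then rated to assess control.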

The next assay relates to Phytophthora infestans. Nature of the assay: whole plant or invertebrate. Format: in vivo. Particulars: Phytophthora infestans, in Solanum lycopersicum, read-out: disease control rating, Ex. H, 100 PPM.
The subject of another assay is Puccinia recondita. In words: Example G wheat leaf rust. Format: in vivo. The following applies: read-out: disease control rating, Ex. G.
In assay [1] the test system is Rhizoctonia solani. Nature of the assay: Example K cotton blight. Type of assay: in vivo. The following applies: 336 h, 5 kg/ha, read-out: disease control rating, Ex. K. The method, then: […] Seeds and soil were then inoculated with a mixture of sand, cereal and mycelium of the fungus Rhizoctonia solani, causal agent of cotton blight, and incubated in a growth chamber at 30° C. for 14 days. Disease ratings were then made.

In another assay the test system is Venturia inaequalis. In words: Example A apple scab. Type of assay: in vivo. Particulars: read-out: disease control rating, Ex. A. The essentials: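 Spray application to run-off on apple seedlings; compound at 100 or 20 ppm in water with 250 ppm TREM 014 (polyhydric alcohol esters) and 6% acetone of final volume.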
Another assay concerns Botrytis cinerea. Nature of the assay: Example C bean grey mold. Particulars: Botrytis cinerea, 24 h, read-out: disease control rating, Ex. C. Format: in vivo. The essentials:
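Spray rates: 100 and 20 ppm. Vehicle: purified water with 6% acetone by final volume plus 250 ppm TREM 014 (polyhydric alcohol esters). Host plants, broad bean seedlings, were wetted until run-off.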

For a further assay, the system named is Plasmorpara viticola. Nature of the assay: Example I grape downy mildew. The following applies: read-out: disease control rating, Ex. I. Format: in vivo. The essentials:
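First, each compound is taken up in acetone amounting to 6% of the final volume. It is then suspended in purified water containing 250 ppm of the polyhydric alcohol ester surfactant TREM 014, at 100 or 20 ppm. Finally, the suspension is sprayed onto grape seedlings until run-off.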

A further assay relates to Pyricularia oryzae. In words: whole plant or invertebrate. Type of assay: in vivo. Particulars: Pyricularia oryzae, 120 h; for pest or weed control at 100 ppm: read-out: disease control rating, Ex. E, 100 PPM.
Assay [2] concerns Erysiphe graminis f. sp. tritici. In words: Example D wheat powdery mildew. Format: in vivo. The following applies: Blumeria graminis, 144 h, read-out: disease control rating, Ex. D. The essentials: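 Seedling wheat was treated by spraying to run-off; formulation used acetone as co-solvent (6% final) and TREM 014 surfactant at 250 ppm, with compound at 100 or 20 ppm.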
The test system of assay [3] is Cercosporidium personatum. In words: Example B Peanut Late Leafspot. Format: in vivo. The following applies: Nothopassalora personata, read-out: disease control rating, Ex. B. The essentials:
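Spray suspensions at 100 or 20 ppm, prepared from acetone solutions (acetone 6% of final volume) in water carrying 250 ppm of a polyhydric alcohol ester surfactant, were applied to peanut seedlings until run-off.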

For assay [4], the system named is Rhizoctonia solani. In words: Example F rice sheath blight. Type of assay: in vivo. The following applies: Rhizoctonia solani, 144 h, read-out: disease control rating, Ex. F. The essentials: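 Foliar run-off spray, rice seedlings: compound at 100 or 20 ppm in aqueous 250 ppm polyhydric alcohol ester surfactant, acetone 6% v/v final.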
Assay [5] deals with Fusarium oxysporum f. sp. cucumerinum. In words: Example L cucumber wilt. Type of assay: in vivo. The following applies: 336 h, 5 kg/ha, read-out: disease control rating, Ex. L. How it is done:
[…] Seeds and soil were then inoculated with a mixture of sand, cereal and mycelium of the fungus Fusarium oxysporum f. sp. cucumerinum, causal agent of cucumber wilt, and incubated in a growth chamber at 30° C. for 14 days. Disease ratings were then made.

In assay [6] the test system is Candida albicans ATCC 11651. In words: In vitro antifungal MIC, microtiter broth dilution. The following applies: Candida albicans, ATCC11651, 24 h, read-out: MIC values, C. albicans, 30°, 24 hours. A general note: In broth dilution the organism is exposed to a series of concentrations in liquid medium.
The test system of assay [7] is Aspergillus fumigatus ATCC 28214. In words: In vitro antifungal MIC, microtiter broth dilution. Particulars: Aspergillus fumigatus, ATCC28214, 24 h, read-out: MIC values, A. fumigatus, 30°, 24 hours.
Assay [8] has as its system Candida albicans ATCC 11651. Nature of the assay: In vivo systemic Candida infection in mice, primary assay. Also noted: species or system Candida albicans; CF-1 female mice. Particulars: Candida albicans, 150 mg/kg per day, read-out: % Survival. The essentials:
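CF-1 female mice (20 g, 10 per group) were infected IV with 0.2 ml of 1×10^7/ml C. albicans ATCC 11651, then given test compound subcutaneously at 50 or 150 mg/kg/day at 1 and 6 h post-infection and once daily for three more days. Survival was followed for 21 days against infected untreated mice; ≥70% protection at 14 days was scored active.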

Structures are written as SMILES. Converted amounts (≈) assume the structure as drawn. Read-outs that look alike come from different tables or passages of the source.

As a reminder, the MIC is the lowest concentration found to suppress growth. On to `C=C(CN(C)C)C(O)(Cn1cncn1)c1ccc(Br)cc1` (stereo not drawn) [Example 455], for which the pest or weed control at 5000 g/ha (in the assay on Sclerotium rolfsii; with Pythium aphanadermatum; with Rhizoctonia solani [1]; in assay [5]) was 0% each time. Moreover, the pest or weed control at 100 ppm with Phytophthora infestans came out at 0%; in the assay on Puccinia recondita, 43%; in the assay with Venturia inaequalis, 64%; with Botrytis cinerea, 0%; with Plasmorpara viticola, 0%; in the assay with Pyricularia oryzae it was 0%. Moreover, the pest or weed control at 100 ppm amounted to 12% in assay [2], 65% in assay [3] and 0% in the assay with Rhizoctonia solani [4]. Further, the MIC in [6] is 25 µg/mL (≈ 71.2 µM).
Take `C=C(c1ccccc1)C(O)(Cn1cncn1)c1ccc(Cl)s1` (stereo not drawn) [Example 618]: the pest or weed control at 5000 g/ha in the assay on Pythium aphanadermatum was 0%; in the assay on Rhizoctonia solani [1] it was 80%; in assay [5], 80%. The pest or weed control at 100 ppm in the assay on Phytophthora infestans amounted to 0%; with Puccinia recondita, 100%; in the assay on Venturia inaequalis, 100%; in the assay on Botrytis cinerea it was 98%; with Plasmorpara viticola it was 0%; in the assay with Pyricularia oryzae it was 0%. Besides, the results for the pest or weed control at 100 ppm in assay [2] and in [3] were 89% and 100%, respectively.
Take `N#CCS(=O)(=O)c1ncnn1CC(O)(c1ccccc1F)C1(c2ccc(F)cc2)CO1` (stereo not drawn) [Example 1469]: the pest or weed control at 5000 g/ha in the assay on Sclerotium rolfsii was 0%; with Pythium aphanadermatum, 0%; in the assay on Rhizoctonia solani [1] it was 80%; in [5], 70%. The pest or weed control at 100 ppm came out at 24% in the assay with Phytophthora infestans; 100% in the assay with Puccinia recondita; 68% in the assay with Venturia inaequalis; 81% in the assay with Botrytis cinerea; 89% with Plasmorpara viticola; 2% in the assay on Pyricularia oryzae. Besides, the pest or weed control at 100 ppm in assay [2] was 77%; in assay [3], 84%.
As to `N#CC[S+]([O-])c1ncnn1CC(O)(c1ccccc1F)C1(c2ccc(F)cc2)CO1` (stereo not drawn) [Example 1468], the pest or weed control at 5000 g/ha with Sclerotium rolfsii turned out to be 0%; in the assay with Pythium aphanadermatum, 0%; with Rhizoctonia solani [1], 60%; in [5], 0%. The pest or weed control at 100 ppm in the assay with Phytophthora infestans is 0%; with Puccinia recondita it was 93%; with Venturia inaequalis, 40%; with Botrytis cinerea, 0%; in the assay with Plasmorpara viticola, 46%; in the assay on Pyricularia oryzae, 2%. The pest or weed control at 100 ppm in [2] turned out to be 77%; in [3], 0%.
On to `C=C(CO)C(O)(Cn1cncn1)c1ccc(F)cc1` (stereo not drawn) [Example 450], for which the pest or weed control at 5000 g/ha (in the assay on Sclerotium rolfsii; in the assay on Pythium aphanadermatum; in the assay on Rhizoctonia solani [1]; in assay [5]) was 0% throughout. Moreover, the pest or weed control at 100 ppm was found to be 0% in the assay with Phytophthora infestans; 30% with Puccinia recondita; 54% with Botrytis cinerea; 51% in the assay on Plasmorpara viticola; 46% in the assay on Pyricularia oryzae; 11% in assay [2]. Also, the pest or weed control at 100 ppm is 0% in assay [3] and 34% in the assay on Rhizoctonia solani [4]. In addition, the MIC in [6] was > 100 µg/mL.
For the molecule `C=C(CO)C(O)(Cn1cncn1)c1ccc(Cl)cc1` (stereo not drawn) [Example 447], the pest or weed control at 5000 g/ha (in the assay on Sclerotium rolfsii; in the assay with Pythium aphanadermatum; in the assay with Rhizoctonia solani [1]; in assay [5]) was 0% each time. In addition, the pest or weed control at 100 ppm with Phytophthora infestans came to 0%; with Puccinia recondita it was 30%; in the assay on Botrytis cinerea it was 24%; in the assay with Plasmorpara viticola it was 24%; in the assay on Pyricularia oryzae, 46%; in [2], 46%. Further, the pest or weed control at 100 ppm (in [3]; in the assay on Rhizoctonia solani [4]) was 0% throughout. In addition, in [6], the MIC turned out to be 3.2 µg/mL (≈ 11.4 µM).
Consider `C=C(c1ccc(F)cc1)C(O)(Cn1cncn1)C(C)C` (stereo not drawn) [Example 667], for which the MIC in assay [7] stood at 25 µg/mL (≈ 90.8 µM); in assay [6], 6.3 µg/mL (≈ 22.9 µM). Besides, the pest or weed control at 5000 g/ha (in the assay on Sclerotium rolfsii; in the assay with Rhizoctonia solani [1]; in assay [5]) was 0% in each case. Besides, the pest or weed control at 100 ppm in the assay on Phytophthora infestans stood at 0%; with Botrytis cinerea, 4%; in the assay on Plasmorpara viticola it was 10%; in the assay on Pyricularia oryzae, 0%; in the assay on Rhizoctonia solani [4], 0%. Besides, the pest or weed control at 20 ppm in the assay with Puccinia recondita (20 PPM) amounted to 0%; in the assay on Venturia inaequalis (20 PPM) it was 13%; with Botrytis cinerea (20 PPM), 7%; in the assay on Pyricularia oryzae (read-out: disease control rating, Ex. E, 20 PPM) it was 0%; in assay [2] (20 PPM), 39%; in assay [3] (20 PPM) it was 14%. In addition, in the assay on Rhizoctonia solani [4] (20 PPM), the pest or weed control at 20 ppm came out at 0%. Besides, the responders at 150 mg/kg amounted to 10% in assay [8] (ATCC11651, 168 h, day 7); 0% in assay [8] (ATCC11651, 336 h, day 14); 0% in [8] (ATCC11651, 504 h, day 21).
For `C=C(CN(C)C)C(O)(Cn1cncn1)c1ccc(-c2ccccc2)cc1` (stereo not drawn) [Example 456], the pest or weed control at 5000 g/ha (in the assay with Sclerotium rolfsii; in the assay on Pythium aphanadermatum; with Rhizoctonia solani [1]; in assay [5]) was 0% throughout. The pest or weed control at 100 ppm was 9% in the assay with Phytophthora infestans; 96% in the assay with Puccinia recondita; 82% in the assay on Venturia inaequalis; 58% with Botrytis cinerea; 0% in the assay with Plasmorpara viticola; 98% in the assay with Pyricularia oryzae. The pest or weed control at 100 ppm was determined as 53% in assay [2], 0% in [3] and 0% in the assay with Rhizoctonia solani [4].
